The source of these data is patent US9487530B2, “Transient protection of normal cells during chemotherapy” (G1 Therapeutics, Inc., priority 2013, dated 2016).

The subject of test [1] is blood cell counts. Kind of test: 5FU-induced myelosuppression, single dose. In kind it is in vivo, mouse. Particulars: 150 mg/kg oral, 30 minutes before 5FU 150 mg/kg i.p. As for the experimental part:
Complete blood cell counts were measured every two days starting on day six.

Test [2] has as its system telomerized human diploid fibroblasts (tHDFs; tHS68). The test is described as follows: Protection from chemotherapy-induced cell death, DNA damage and caspase activation in fibroblasts. In kind it is cell-based. Here is the method:
Cell survival was determined by Cell TiterGlo assay per manufacturer's recommendations. For both γ-H2AX and caspase 3/7 assays, cells were plated and allowed to become adherent for 24 hours. […] For γ-H2AX, cells were harvested for analysis 8 hours after chemotherapy exposure. For the γ-H2AX assay, cells were fixed, permeabilized, and stained with anti-γ-H2AX as per the γ-H2AX Flow Kit (Millipore) and quantitated by flow cytometry. Data was analyzed using FlowJo 2.2 software developed by TreeStar, Inc. For the in vitro caspase 3/7 assay, cells were harvested 24 hours post chemotherapy treatment. Caspase 3/7 activation was measured using the Caspase-Glo® 3/7 Assay System (Promega) per manufacturer's recommendations.

In test [3] the test system is WM2664 cells (CDK4/6-dependent cell line). The test is described as follows: Cell cycle arrest (propidium iodide), WM2664. Format: cell-based. Particulars: 300 nM for 24 hours. An excerpt:
(§1) To test the ability of Cdk4/6 inhibitors to induce a clean G1-arrest, a cell based screening method was used consisting of two Cdk4/6-dependent cell lines (tHS68 and WM2664; Rb-positive) and one Cdk4/6-independent (A2058; Rb-negative) cell line. […] At the conclusion of the experiment, cells were harvested, fixed, and stained with propidium iodide (a DNA intercalator), which fluoresces strongly red (emission maximum 637 nm) when excited by 488 nm light. Samples were run on Dako Cyan flow cytometer and >10,000 events were collected for each sample. Data were analyzed using FlowJo 2.2 software developed by TreeStar, Inc.

For test [4], the system named is tHS68 cells (CDK4/6-dependent cell line). The test is described as follows: Cell cycle arrest (propidium iodide), tHS68. Format: cell-based. Particulars: 300 nM for 24 hours.
From the text: as §1

Test [5] deals with human renal proximal tubule cells. The test is described as follows: Cell cycle of renal proximal tubule cells with etoposide or cisplatin. Format: cell-based. Particulars: 10-1000 nM in combination with etoposide or cisplatin. As for the experimental part: The ability of Cdk4/6 inhibitors to protect human renal proximal tubule cells from chemotherapy induced DNA damage was analyzed using etoposide and cisplatin. […] At the conclusion of the experiment, cells were harvested, fixed, and stained with propidium iodide (a DNA intercalator), which fluoresces strongly red (emission maximum 637 nm) when excited by 488 nm light. Samples were run on Dako Cyan flow cytometer.

Test [6] has as its system blood cell counts. Kind of test: 5FU-induced myelosuppression, repeated cycles. In kind it is in vivo, mouse. Particulars: 150 mg/kg oral + 5FU 150 mg/kg every 21 days, 3 cycles; Day 10 of third cycle. An excerpt:
This was repeated every 21 days for 3 cycles. Blood samples were taken for hematology analysis on Day 10 of Cycles 1-3.

The test system of test [7] is 456 (395 non-mutant) kinases. The test is described as follows: DiscoveRx KINOMEscan profiling. Format: binding. Particulars: 1000 nM. As for the experimental part: The compound was screened using a single concentration of 1000 nM (>1000 times the 1050 on Cdk4). Results from this screen confirmed the high potency against Cdk4 and high selectivity versus Cdk2.
Test [8] concerns Rb phosphorylation at Ser780 and Ser807/811. The test is described as follows: Rb phosphorylation western blot. Format: cell-based. Particulars: 300 nM; Rb-dependent cell lines (tHS68, WM2664); by 16 hours post exposure. Here is the method: The Cdk4/6-cyclin D complex is essential for progression from G1 to the S-phase of the DNA cell cycle. This complex phosphorylates the retinoblastoma tumor suppressor protein (Rb). […] Samples were lysed and protein was assayed by western blot analysis. Rb phosphorylation was measured at two sites targeted by the Cdk4/6-cyclin D complex, Ser780 and Ser807/811 using species specific antibodies.

In the case of `CN1CCN(c2ccc(Nc3ncc4cc5n(c4n3)C3(CCCCC3)CNC5=O)nc2)CC1` [T, 2′-((5-(4-methylpiperazin-1-yl)pyridin-2-yl)amino)-7′,8′-dihydro-6′H-spiro[cyclohexane-1,9′-pyrazino[1′,2′:1,5]pyrrolo[2,3-d]pyrimidin]-6′-one], the “recovery of blood cell lineages after 5FU” value in test [1] was “more rapid recovery”. For the same compound, the “cell survival (Cell TiterGlo)” value in test [2] (in the presence of etoposide (5 uM) or carboplatin (100 uM)) is recorded as “dose dependent cell survival”. For the same compound, the “DNA damage as measured by gamma-H2AX formation” value in test [2] (prior to carboplatin, doxorubicin, etoposide, camptothecin or paclitaxel) is “attenuated DNA damage”. The “caspase 3/7 activation” value in test [2] (prior to carboplatin, doxorubicin, etoposide, camptothecin, and paclitaxel) was “robust decrease in caspase 3/7 activation in a dose-dependent manner”. Also, the S-phase peak entry in test [3] and in test [4] was “causes a loss of the S-phase peak” each time. Moreover, in test [5], the cell cycle distribution entry was “decrease in the percentage of S-phase cells, with a corresponding rise in the percentage of cells in the G0-G1 phase”. Also, the “myelosuppression with repeated 5FU” value in test [6] is recorded as “reduced the myelosuppression”. Also, the figures for the “number of 395 non-mutant kinases inhibited” value in test [7] (inhibitory threshold 65%), in test [7] (inhibitory threshold 90%) and in test [7] (inhibitory threshold 99%) were 92 (23.3%), 31 (7.8%) and 6 (1.5%), respectively. Besides, the Rb phosphorylation entry in test [8] was “blocks Rb phosphorylation”.
